Legend:
hBChE [1] = target: T1, hBChE (Homo sapiens, UniProt P06276); assay: ChE IC50 determination, method of Ellman, hBChE; assay type: biochemical
Experimental: The inhibitory potencies of the compounds against the ChEs were determined using the method of Ellman following the procedure described previously. Briefly, compound stock solutions in DMSO were incubated with Ellman’s reagent and ChEs (final concentrations: 370 μmol/L Ellman’s reagent, approximately 1 nmol/L or 50 pmol/L hBChE or hAChE, respectively) in 0.1 mol/L sodium phosphate pH 8.0 for 5 min at 20 °C. For time-dependency measurements, the pre-incubation time was varied (1, 5, 15, 30 or 60 min). The reactions were started by the addition of the substrate (final concentration, 500 μmol/L butyrylthiocholine iodide or acetylthiocholine iodide for hBChE and hAChE, respectively). The final content of DMSO was always 1%. The increase in absorbance at 412 nm was monitored for 2 min using a 96-well microplate reader (Synergy HT, BioTek Instruments, VT, USA). The initial velocities in the presence (vi) and absence (v0) of the test compounds were calculated. The inhibitory potencies were expressed as the residual activities, according to Eq. (1):(1) RA = vi / v0
For IC50 determinations, at least seven different concentrations for each compound were used. The IC50 values were obtained by plotting the residual ChE activities against the applied inhibitor concentrations, with the experimental data fitted to a four-parameter logistic function (GraphPad Prism 9.4). Tacrine and donepezil were used as positive controls.

hBChE [2] = target: T1, hBChE; assay: hBChE binding kinetics: carbamoylation and decarbamoylation, initial velocity measurements; assay type: biochemical
Experimental: The progress curves for the time courses of product formation for the hydrolysis of butyrylthiocholine iodide were measured on an Agilent Cary 3500 UV–VIS spectrophotometer with Compact Peltier (thermostated at 25 °C) at 412 nm using a 0.6 mL cuvette (optical path–0.5 cm). 30 mmol/L Tris buffer pH 7.0 with 1 mg/mL BSA and 0.02% NaN3 was used and all dilutions were done in glass vessels (note: dilute hBChE solutions rapidly lose activity, presumably due to adsorption to plastic, preventing meaningful decarbamoylation assays. In our hands, under the above conditions only, the diluted and stock solutions of hBChE were stable for at least a month at room temperature.). Total volume in the cuvette was always 500 μL, and enzyme solutions that gave upon dilution v0 = (dA/dt) ≈ 0.5 (for carbamoylation) and ≈ 1 for (for decarbamoylation) were used. For carbamoylation experiments, 0.5–1 μL of enzyme stock, 5 μL of compound solution, and 484 μL of buffer were preincubated for the specified time, then 10 μL of the mixture of 25 mmol/L Ellman’s reagent (DTNB) and 20 mmol/L butyrylthiocholine (large excess to prevent substrate depletion) were added, quickly mixed, and measurement started. […] The data analysis followed the literature[63]^,[98].

Aqueous stability (UPLC) = assay type: physicochemical
Experimental: For the aqueous stability determination, UPLC analyses were performed as described under Chemistry–General Information. The method used a Waters Acquity UPLC® HSS C18 SB column (2.1 mm× 50 mm, 1.8 μm) thermostated at 40 °C, with: injection volume, 5 μL; flow rate, 0.4 mL/min; detector λ, 220 nm; mobile phase A: 0.1% TFA (v/v) in MilliQ water; mobile phase B: MeCN. Gradient: 0–5 min, 20%–100% B; 5–6 min, 20% B.
Compound stock solutions (100 mmol/L) were prepared in absolute EtOH, while the internal standard (caffeine) was dissolved in PBS (0.1 mg/mL). The aqueous stability solutions were prepared by mixing 1200 μL PBS with internal standard, 150 μL absolute EtOH, and 150 μL compound stock solution in a HPLC vial to give 10 mmol/L compound concentration in PBS/EtOH = 80:20, which was injected immediately and then at hourly intervals for 48 h. The analyte AUCs were normalized on internal standard AUCs and compared with the timepoint zero. For the rate calculation, pseudo-first order kinetics were assumed.
For investigation of compound 8 stability in an aqueous medium, its stock solution (10,000 mg/L) was prepared in EtOH. 15 μL of the stock solution was mixed with 60 μL of caffeine (2500 mg/L in EtOH) and 1425 μL of the respective aqueous solution/buffer to achieve final concentration of 100 mg/L with 5% ethanol content. The UPLC analysis was carried as described above.

SH-SY5Y cells = assay: Neuroprotection assay against Aβ1–42, 7-AAD flow cytometry; assay type: cell-based, human; details: 5 μmol/L compound, 5 μmol/L fibrillar Aβ1–42, 48 h
Experimental: Cell culture and treatments The human neuroblastoma SH-SY5Y cell line was purchased from American Type Culture Collection (Manassas, VA, USA). Cells were cultured in Advanced Dulbecco’s modified Eagle’s medium (Gibco, Thermo Fisher Scientific, Waltham, MA, USA) supplemented with 10% fetal bovine serum (FBS, Gibco), 2 mmol/L L-glutamine, 50 U/mL penicillin and 50 μg/mL streptomycin (Sigma, St. Louis, MO, USA) in a humidified atmosphere of 95% air and 5% CO2 at 37 °C, and grown to 80% confluence. Prior to cell treatment, complete medium was replaced with serum-reduced medium (i.e., with 2% FBS). Compounds were prepared as a stock solution of 50 mmol/L in DMSO.
Neuroprotection assay The neuroprotective effect of compounds on cytotoxic effect of Aβ1–42 was determined with the fluorescent intercalator 7-aminoactinomycin D (7-AAD) assessed by flow cytometry. Prior to cell treatment, the peptide Aβ1–42 (Merck Millipore, Darmstadt, Germany) was dissolved in DMSO at a concentration of 1 mmol/L and was incubated at 100 μmol/L in 1 mol/L HCl at 37 °C for 24 h to induce Aβ aggregation. […] Cells were then analysed for cytotoxicity by flow cytometry on Attune NxT flow cytometer (Thermo Fisher Scientific). The percentage of 7AAD positive (7AADpos) cells was evaluated using FlowJo software (FlowJo, LLC., Ashland, OR, USA).

T1 sequence (P06276 29-602): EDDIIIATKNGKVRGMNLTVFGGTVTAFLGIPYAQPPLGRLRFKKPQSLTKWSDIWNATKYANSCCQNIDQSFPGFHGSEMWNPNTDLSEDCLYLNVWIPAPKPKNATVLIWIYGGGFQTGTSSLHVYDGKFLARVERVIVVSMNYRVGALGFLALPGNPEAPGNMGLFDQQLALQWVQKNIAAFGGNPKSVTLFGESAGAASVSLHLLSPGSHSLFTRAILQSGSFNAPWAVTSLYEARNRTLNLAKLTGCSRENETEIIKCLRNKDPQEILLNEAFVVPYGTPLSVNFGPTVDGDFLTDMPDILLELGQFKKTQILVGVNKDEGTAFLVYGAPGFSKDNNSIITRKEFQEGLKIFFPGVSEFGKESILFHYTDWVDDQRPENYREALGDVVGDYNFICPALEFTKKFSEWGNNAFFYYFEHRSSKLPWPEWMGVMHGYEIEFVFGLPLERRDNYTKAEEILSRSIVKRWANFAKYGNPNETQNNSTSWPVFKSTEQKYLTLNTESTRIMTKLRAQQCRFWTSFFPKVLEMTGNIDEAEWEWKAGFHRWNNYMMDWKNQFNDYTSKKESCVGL

SMILES: CCN(CC)C(=O)n1cnc(C2(CC)Cc3ccccc3C2)c1 [Compound 8, N,N-Diethyl-4-(2-ethylindan-2-yl)-1H-imidazole-1-carboxamide]
- IC50 (hBChE [1]; after 5 min preincubation, read-out: hBChE IC50±SD): 1520 ± 90 nM
- hBChE time-dependency observed: Yes/No (hBChE [1]; pre-incubation time varied): Yes
- Ki (hBChE [2]): 2820 ± 200 nM
- kcarb, carbamoylation (hBChE [2]; 25 °C): 3.7±1.7 min^–1
- ΔG25°C‡, carbamoylation (hBChE [2]; 25 °C): 19.1 ± 0.3 kcal/mol
- reactivation period of the carbamoylated enzyme (hBChE [2]; Table 2): > 10 days
- prolongation of decarbamoylation phase (hBChE [2]; compared to 6): > 15 fold
- t1/2 in aqueous solution (Aqueous stability (UPLC); PBS:EtOH = 80:20, 10 mmol/L, during 48 h): stable
- % left after 24 h (Aqueous stability (UPLC); PBS:EtOH = 95:5, 100 mg/L): 100.0%
- % left after 24 h (Aqueous stability (UPLC); pH 2:EtOH = 95:5, 100 mg/L): 99.9%
- % left after 24 h (Aqueous stability (UPLC); pH 4:EtOH = 95:5, 100 mg/L): 100.0%
- % left after 24 h (Aqueous stability (UPLC); pH 6:EtOH = 95:5, 100 mg/L): 100.0%
- % left after 24 h (Aqueous stability (UPLC); pH 10:EtOH = 95:5, 100 mg/L): 97.7%
- 7-AAD-positive cells after Aβ1–42 treatment (SH-SY5Y cells): significant reduction
